Where two headings read alike, the source gives them in different places.
How the values were obtained:
[1] = test system: PTSD due to physical abuse in early childhood and later stages; details: 7% hydrogen gas inhaled, before inhalation score 61
Experimental: (§1) Adult women who had experienced the onset of PTSD due to an intense psychological shock received through physical abuse in early childhood and later stages were subjected to inhalation of hydrogen gas with a concentration of 7% by using a hydrogen generator (MHG-2000α, produced by MiZ Company Limited) for 1 to 3 hours per day over 3 weeks. Each of the subjects had been regularly using an analgesic prescribed by a physician to treat pain, and continued the regular use also during the period of inhalation.
(§2) Symptoms of PTSD were quantified through interviews by a physician.

[2] = test system: mice exposed to blast (bmTBI)
Experimental: (§3) All animal experiments relating to the present invention were conducted according to the institutional ethical guidelines for animal experiments of the National Defense Medical College and these animal experiments were approved by the Committee for Animal Research at the National Defense Medical College. Inbred C57BL/6 mice were used in this experiment. Age-matched male littermate mice were used in all experiments. The mice were housed in a breeding room with a 12-h light/dark cycle and a room temperature maintained at 24±1° C. The mice had ad libitum access to water and food.
(§4) The mice at 10 weeks of age were anesthetized by intraperitoneal administration of mixed anesthetic agents containing medetomidine hydrochloride (0.3 mg/kg, Domitol, Meiji Seika Pharma Co., Ltd.), midazolam (4.0 mg/kg, Dormice, Astellas Pharma Inc.), and butorphanol (5.0 mg/kg, Vetorphale, Meiji Seika Pharma Co., Ltd.). […] Following blast exposure, mice were allowed to recover from anesthesia and were subsequently returned to their home cage.
(§5) Mice were placed in a humid chamber for hydrogen gas inhalation for 6 hours per day. Hydrogen gas diluted by air (4%) was supplied to the chamber from a hydrogen gas supply apparatus (MiZ Company Limited) at a feeding rate of 2 L/min. The mice had ad libitum access to water and food in the chamber.
Behavioral analysis was performed 7 days after the blast exposure. All mice used in the behavioral analysis were age-matched male littermates. The behavior of each mouse was monitored and analyzed using a computer-operated video tracking system (SMART, Panlab, Barcelona, Spain), unless otherwise stated. In tests using an apparatus with arms, arm entry was counted when all four legs of a mouse entered each arm. The apparatus was washed after each test. Behavioral studies were performed for mice at 11 to 12 weeks of age.

[3] = test system: mice exposed to blast (bmTBI); remark: listed apart in the source
Experimental: as §3, with “food. […]” for “food.”
Behavioral analysis was performed 7 days after the blast exposure. […] The behavior of each mouse was monitored and analyzed using a computer-operated video tracking system (SMART, Panlab, Barcelona, Spain), unless otherwise stated. In tests using an apparatus with arms, arm entry was counted when all four legs of a mouse entered each arm. […]
A sociability test was performed by using a conventional method. Interaction time with another living mouse versus a stuffed mouse was measured in an open field using two cylinder cages allowing olfactory and minimal tactile feelings. […]

[4] = test system: ROS formation in the brains; details: 6 days after blast exposure; 4% hydrogen gas 6 hours per day
Experimental: as §3, §4, §5

[5] = test system: PTSD caused by abuse in early childhood; details: for Total score (PCL-5): 7% hydrogen gas inhaled, before inhalation score 66
Experimental: Adult women who had lived for 10 years or longer after the onset of PTSD caused by abuse in early childhood were subjected to inhalation of hydrogen gas with a concentration of 7% by using a hydrogen generator (MHG-2000α, produced by MiZ Company Limited) for at least 1 hour (up to 4 hours) per day over 7 weeks. Each of the subjects had been regularly using an analgesic prescribed by a physician to treat pain, and continued the regular use also during the period of inhalation.
Symptoms of PTSD were quantified through interviews by a physician with the PTSD Checklist for DSM-5 (PCL-5; published by the National Center for PTSD).

[6] = test system: PTSD due to an intense psychological shock received in military operations; details: for Total score: 7% hydrogen gas inhaled, before inhalation score 49
Experimental: as §1, with “received” for “received through physical abuse”, “military operations” for “early childhood and later stages”, “at least 2 hours (up” for “1”, “4 hours)” for “3 hours”
as §2

[7] = at clinical concentrations, previous studies; cited from earlier work
[8] = 7 days after blast, 4% hydrogen gas 6 hours per day for 7 days, one-way ANOVA p>0.05

**Q.** With [HH] [hydrogen gas] as the compound, how does the Total score ([1]; Week 1, average 3 H/day) read?
**A.** Its Total score is 62.

**Q.** And the Total score ([1]; Week 2, average 2 H/day)?
**A.** The Total score was 60.

**Q.** And the Total score ([1]; Week 4, average 1 H/day)?
**A.** The Total score was 49.

**Q.** And the Total score ([1]; Week 7, average 2 H/day)?
**A.** Its Total score is 53.

**Q.** And the Total score ([1]; Week 10, average 2.15 H/day)?
**A.** The Total score was 50.

**Q.** What about the “Activity, total distance traveled in 10 minutes, versus sham” value [2, 8] of the same compound?
**A.** Its value is “did not show abnormal activity”.

**Q.** What about the “Percentage of time spent in the open arms, comparison of Sham, bmTBI, bmTBI+H2” value [2, 8] of the same compound?
**A.** The value was “did not differ significantly”.

**Q.** What about the “Gross motor function, latency on accelerating rotarod” value ([2]; 7 days after blast, 4% hydrogen gas 6 hours per day for 7 days, two-way ANOVA p>0.05) of the same compound?
**A.** Its value is “gross motor function was intact”.

**Q.** What about the “Total immobility time during the 6-minute trial” value ([2]; bmTBI+H2 group versus control, bmTBI increased, one-way ANOVA F=6.94, p=0.0036) of the same compound?
**A.** The value was “comparable immobility time to control mice (Sham)”.

**Q.** And the “Latency to the first bout of immobility” value ([2]; bmTBI+H2 group versus control, one-way ANOVA F=6.42, p=0.0051)?
**A.** Its value is “latencies comparable to the control (Sham) group”.

**Q.** What about the “Correct choices (spatial working memory)” value ([2]; bmTBI+H2 group, Sham 62.6±1.8%, bmTBI 62.3±3.4%, mean±standard error, p>0.05) of the same compound?
**A.** Its value is 60.4±3.4%.

**Q.** What about the “Depression-like behaviors induced by blast exposure” value ([2]; conclusion from tail suspension and forced swim tests) of the same compound?
**A.** Its value is “suppresses depression-like behaviors induced by blast exposure”.

**Q.** What about the “Duration of interaction with an inanimate novel object, difference between groups” value ([2]; one-way ANOVA p>0.05) of the same compound?
**A.** Its value is “no difference”.

**Q.** What about the “Time required to find the buried food, difference between groups” value ([2]; one-way ANOVA p>0.05) of the same compound?
**A.** The value was “no difference was found in the olfactory test”.

**Q.** And the “Abnormal social behaviors induced by blast” value ([3]; conclusion from sociability, olfactory and novelty tests)?
**A.** The value was “suppressed the abnormal social behaviors induced by blast”.

**Q.** And the “Difference between interaction time with living mouse and with stuffed mouse” value ([3]; within bmTBI+H2 group, t-test p>0.05)?
**A.** The value was “no significant difference”.

**Q.** And the “ROS in the brains (ethidium fluorescence) versus blast exposure alone” value [4]?
**A.** The value was “significantly reduced”.

**Q.** And the “Symptoms of PTSD after the initiation of inhalation” value ([5]; 7% hydrogen gas, 1 to 4 hours per day over 7 weeks)?
**A.** Its value is “tended to ameliorate”.

**Q.** What about the “Total score (PCL-5)” value ([5]; Week 1, average 2.2 H/day) of the same compound?
**A.** The value was 55.

**Q.** And the “Total score (PCL-5)” value ([5]; Week 2, average 3.8 H/day)?
**A.** The value was 41.

**Q.** What about the “Total score (PCL-5)” value ([5]; Week 4, average 2.8 H/day) of the same compound?
**A.** The value was 41.

**Q.** What about the “Total score (PCL-5)” value ([5]; Week 7, average 1.1 H/day) of the same compound?
**A.** Its value is 27.

**Q.** What about the “Symptoms of PTSD after the initiation of inhalation” value ([6]; 7% hydrogen gas, 2 to 4 hours per day over 3 weeks) of the same compound?
**A.** The value was “tended to ameliorate”.

**Q.** What about the Total score ([6]; Week 2, average 4 H/day) of the same compound?
**A.** Its Total score is 16.

**Q.** What about the Total score ([6]; Week 3, average 2 H/day) of the same compound?
**A.** The Total score was 12.

**Q.** And the “Side effects of hydrogen” value [7]?
**A.** Its value is “no serious side effect”.

From patent US20230111180A1, “HYDROGEN CONTAINING COMPOSITION AND METHODS OF USING THE SAME” (MiZ Company Limited, priority 2017, published 2023)
